Assay results from PubChem BioAssay (NCI).
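Tested at 5 concentrations; 48 h exposure; 96-well plates; endpoints linearly interpolated, else capped at highest concentration. Abbreviation: GI50, concentration required for 50% inhibition of growth. TGI: total growth inhibition.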

How the values were obtained:
Experiment in all cases: NCI anticancer screen, dose series, 48 h
RPMI-8226 leukemia = test system: RPMI-8226 leukemia
SK-MEL-28 melanoma = test system: SK-MEL-28 melanoma
UACC-62 melanoma = test system: UACC-62 melanoma
SF-268 CNS = test system: SF-268 CNS
MALME-3M melanoma = test system: MALME-3M melanoma
LOX IMVI melanoma = test system: LOX IMVI melanoma
K-562 leukemia = test system: K-562 leukemia
MDA-MB-435 = test system: MDA-MB-435
OVCAR-8 ovarian = test system: OVCAR-8 ovarian
SK-OV-3 ovarian = test system: SK-OV-3 ovarian
UACC-257 melanoma = test system: UACC-257 melanoma
SK-MEL-5 melanoma = test system: SK-MEL-5 melanoma
MDA-MB-231 breast = test system: MDA-MB-231 breast
NCI-H226 lung = test system: NCI-H226 lung
EKVX NSCLC = test system: EKVX NSCLC
HT29 colon = test system: HT29 colon
SR leukemia = test system: SR leukemia
SNB-19 CNS = test system: SNB-19 CNS
RXF 393 renal = test system: RXF 393 renal
IGROV1 ovarian = test system: IGROV1 ovarian
NCI/ADR-RES ovarian = test system: NCI/ADR-RES ovarian
SF-295 CNS = test system: SF-295 CNS
PC-3 prostate = test system: PC-3 prostate
NCI-H460 lung = test system: NCI-H460 lung
T-47D breast = test system: T-47D breast
M14 melanoma = test system: M14 melanoma
A498 renal = test system: A498 renal
SW-620 colon = test system: SW-620 colon
UO-31 renal = test system: UO-31 renal
HCC-2998 colon = test system: HCC-2998 colon
ACHN renal = test system: ACHN renal
KM12 colon = test system: KM12 colon
HOP-62 NSCLC = test system: HOP-62 NSCLC
MCF7 breast = test system: MCF7 breast
SN12C renal = test system: SN12C renal
BT-549 breast = test system: BT-549 breast
U251 CNS = test system: U251 CNS
HCT-15 colon = test system: HCT-15 colon
OVCAR-5 ovarian = test system: OVCAR-5 ovarian
COLO 205 colon = test system: COLO 205 colon
DU-145 prostate = test system: DU-145 prostate
TK-10 renal = test system: TK-10 renal
MDA-N = test system: MDA-N
A549 NSCLC = test system: A549 NSCLC
HS 578T breast = test system: HS 578T breast
HCT-116 colon = test system: HCT-116 colon
OVCAR-4 ovarian = test system: OVCAR-4 ovarian
786-0 renal = test system: 786-0 renal
HOP-92 NSCLC = test system: HOP-92 NSCLC
SNB-75 CNS = test system: SNB-75 CNS
SF-539 CNS = test system: SF-539 CNS
CAKI-1 renal = test system: CAKI-1 renal
MOLT-4 leukemia = test system: MOLT-4 leukemia
OVCAR-3 ovarian = test system: OVCAR-3 ovarian
NCI-H522 lung = test system: NCI-H522 lung
SK-MEL-2 melanoma = test system: SK-MEL-2 melanoma
NCI-H23 lung = test system: NCI-H23 lung

C[n+]1c2cc(N)ccc2cc2ccc(N)cc21 (tested in a mixture with another compound)
GI50 (RPMI-8226 leukemia): 345 nM
TGI (RPMI-8226 leukemia): 1680 nM
GI50 (SK-MEL-28 melanoma): 1330 nM
TGI (SK-MEL-28 melanoma): 7.48 µM
GI50 (UACC-62 melanoma): 435 nM
TGI (UACC-62 melanoma): 1940 nM
GI50 (SF-268 CNS): 265 nM
TGI (SF-268 CNS): 1290 nM
GI50 (MALME-3M melanoma): 258 nM
TGI (MALME-3M melanoma): 1040 nM
GI50 (LOX IMVI melanoma): 307 nM
TGI (LOX IMVI melanoma): 1460 nM
GI50 (K-562 leukemia): 200 nM
TGI (K-562 leukemia): 1250 nM
GI50 (MDA-MB-435): 615 nM
TGI (MDA-MB-435): 2100 nM
GI50 (OVCAR-8 ovarian): 377 nM
TGI (OVCAR-8 ovarian): 2230 nM
GI50 (SK-OV-3 ovarian): 1350 nM
TGI (SK-OV-3 ovarian): 6.15 µM
GI50 (UACC-257 melanoma): 337 nM
TGI (UACC-257 melanoma): 2040 nM
GI50 (SK-MEL-5 melanoma): 616 nM
TGI (SK-MEL-5 melanoma): 2250 nM
GI50 (MDA-MB-231 breast): 618 nM
TGI (MDA-MB-231 breast): 2500 nM
GI50 (NCI-H226 lung): 291 nM
TGI (NCI-H226 lung): 1790 nM
GI50 (EKVX NSCLC): 261 nM
TGI (EKVX NSCLC): 1770 nM
GI50 (HT29 colon): 431 nM
TGI (HT29 colon): 3.87 µM
GI50 (SR leukemia): 169 nM
TGI (SR leukemia): 537 nM
GI50 (SNB-19 CNS): 578 nM
TGI (SNB-19 CNS): 3.94 µM
GI50 (RXF 393 renal): 1120 nM
TGI (RXF 393 renal): 3.41 µM
GI50 (IGROV1 ovarian): 140 nM
TGI (IGROV1 ovarian): 1480 nM
GI50 (NCI/ADR-RES ovarian): 746 nM
TGI (NCI/ADR-RES ovarian): 4.84 µM
GI50 (SF-295 CNS): 809 nM
TGI (SF-295 CNS): 4.62 µM
GI50 (PC-3 prostate): 332 nM
TGI (PC-3 prostate): 12.9 µM
GI50 (NCI-H460 lung): 269 nM
GI50 (T-47D breast): 330 nM
TGI (T-47D breast): 3.02 µM
GI50 (M14 melanoma): 1040 nM
TGI (M14 melanoma): 5.21 µM
GI50 (A498 renal): 133 nM
TGI (A498 renal): 515 nM
GI50 (SW-620 colon): 79.1 nM
TGI (SW-620 colon): 6.2 µM
GI50 (UO-31 renal): 106 nM
TGI (UO-31 renal): 598 nM
GI50 (HCC-2998 colon): 221 nM
TGI (HCC-2998 colon): 1440 nM
GI50 (ACHN renal): 304 nM
TGI (ACHN renal): 3.59 µM
GI50 (KM12 colon): 210 nM
TGI (KM12 colon): 1370 nM
GI50 (HOP-62 NSCLC): 630 nM
TGI (HOP-62 NSCLC): 5.37 µM
GI50 (MCF7 breast): 372 nM
TGI (MCF7 breast): 17.9 µM
GI50 (SN12C renal): 326 nM
TGI (SN12C renal): 1750 nM
GI50 (BT-549 breast): 624 nM
TGI (BT-549 breast): 5.25 µM
GI50 (U251 CNS): 448 nM
TGI (U251 CNS): 3.65 µM
GI50 (HCT-15 colon): 512 nM
TGI (HCT-15 colon): 4.71 µM
GI50 (OVCAR-5 ovarian): 405 nM
TGI (OVCAR-5 ovarian): 11.1 µM
GI50 (COLO 205 colon): 148 nM
TGI (COLO 205 colon): 1300 nM
GI50 (DU-145 prostate): 584 nM
TGI (DU-145 prostate): 4.88 µM
GI50 (TK-10 renal): 1040 nM
TGI (TK-10 renal): 7.49 µM
GI50 (MDA-N): 640 nM
TGI (MDA-N): 2060 nM
GI50 (A549 NSCLC): 74.9 nM
TGI (A549 NSCLC): 10.1 µM
GI50 (HS 578T breast): 687 nM
TGI (HS 578T breast): 3.56 µM
GI50 (HCT-116 colon): 345 nM
GI50 (OVCAR-4 ovarian): 646 nM
TGI (OVCAR-4 ovarian): 2680 nM
GI50 (786-0 renal): 320 nM
TGI (786-0 renal): 2290 nM
GI50 (HOP-92 NSCLC): 273 nM
TGI (HOP-92 NSCLC): 1090 nM
GI50 (SNB-75 CNS): 314 nM
TGI (SNB-75 CNS): 1380 nM
GI50 (SF-539 CNS): 498 nM
TGI (SF-539 CNS): 6.22 µM
GI50 (CAKI-1 renal): 429 nM
TGI (CAKI-1 renal): 3.54 µM
GI50 (MOLT-4 leukemia): 209 nM
TGI (MOLT-4 leukemia): 746 nM
GI50 (OVCAR-3 ovarian): 1160 nM
TGI (OVCAR-3 ovarian): 8.38 µM
GI50 (NCI-H522 lung): 217 nM
TGI (NCI-H522 lung): 839 nM
GI50 (SK-MEL-2 melanoma): 1620 nM
TGI (SK-MEL-2 melanoma): 15.3 µM
GI50 (NCI-H23 lung): 292 nM
TGI (NCI-H23 lung): 1430 nM
